Measured values taken from the NIST ThermoML archive (doi:10.1021/je901020a).

Assays:
[1] = xn = mol fraction of the nth substance listed; conditions: 101 kPa, Liquid; for speed of sound: Pulse-echo method
[2] = refractive index (Na D-line) (dimensionless); xn = mol fraction of the nth substance listed; conditions: 101 kPa, Liquid, Standard Abbe refractometry

CC1CCCCC1 [methylcyclohexane] + Cc1ccccc1C
Conditions | mass density, [1] [kg/m3] | refractive index, [2] | speed of sound, [1] [m/s]
298.15 K, x1 = 0.0558 | 868.7 | 1.49758 | 1340
298.15 K, x1 = 0.0973 | 863.5 | 1.49375 | 1333
298.15 K, x1 = 0.1875 | 852.9 | 1.48587 | 1318
298.15 K, x1 = 0.2979 | 839.7 | 1.47605 | 1300
298.15 K, x1 = 0.4084 | 827 | 1.46659 | 1283
298.15 K, x1 = 0.4965 | 817.1 | 1.45929 | 1271
298.15 K, x1 = 0.5946 | 806.3 | 1.45128 | 1259
298.15 K, x1 = 0.6948 | 795.5 | 1.44332 | 1246
298.15 K, x1 = 0.7944 | 785.2 | 1.43568 | 1235
298.15 K, x1 = 0.8912 | 775.6 | 1.42852 | 1225
298.15 K, x1 = 0.9497 | 769.9 | 1.42429 | 1219
298.15 K, x1 = 1 | 765 | 1.42062 | 1215
313.15 K, x1 = 0.049 | 856.8 | 1.49036 | 1281
313.15 K, x1 = 0.0983 | 850.8 | 1.48589 | 1272
313.15 K, x1 = 0.1972 | 838.9 | 1.47705 | 1255
313.15 K, x1 = 0.2832 | 828.7 | 1.46962 | 1241
313.15 K, x1 = 0.403 | 814.8 | 1.45951 | 1222
313.15 K, x1 = 0.5001 | 803.8 | 1.4514 | 1208
313.15 K, x1 = 0.598 | 793 | 1.44349 | 1195
313.15 K, x1 = 0.6977 | 782.3 | 1.43558 | 1182
313.15 K, x1 = 0.7947 | 772.2 | 1.4281 | 1171
313.15 K, x1 = 0.9013 | 761.5 | 1.42003 | 1160
313.15 K, x1 = 0.9474 | 756.9 | 1.4165 | 1154
313.15 K, x1 = 1 | 751.9 | 1.41274 | 1150

Cc1cccc(C)c1 [1,3-dimethylbenzene] + C1CCCCCCC1
x2 = 0
Conditions | mass density, [1] [kg/m3] | refractive index, [2] | speed of sound, [1] [m/s]
298.15 K | 859.8 | 1.49466 | 1321
313.15 K | 846.9 | 1.48653 | 1259
